# Earlier results as cited in patent US4761398A, “Method of inducing birds to molt” (Embrex, Inc., priority 1986, dated 1988).
# Where no end group is shown, it is not given here.
# Target: T1, LHRH receptor (Homo sapiens, UniProt P30968)
# T1 sequence (P30968 1-328): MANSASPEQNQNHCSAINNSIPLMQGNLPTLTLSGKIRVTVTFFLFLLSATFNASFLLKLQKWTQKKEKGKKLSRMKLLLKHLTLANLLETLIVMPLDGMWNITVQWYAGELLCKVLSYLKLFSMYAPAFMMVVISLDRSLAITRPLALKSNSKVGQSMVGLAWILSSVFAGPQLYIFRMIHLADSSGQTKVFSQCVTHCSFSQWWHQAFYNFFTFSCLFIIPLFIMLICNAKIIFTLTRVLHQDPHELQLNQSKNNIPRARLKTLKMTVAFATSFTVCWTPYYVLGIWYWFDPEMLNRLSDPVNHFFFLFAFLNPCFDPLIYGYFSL
# Settings: 6-substituted analogs, Nestor et al.; cited from earlier work
row,Substance,potency relative to LHRH
1,[D-Cha^6 ]LHRH,more potent than LHRH
2,[D-Dca^6 ]LHRH,more potent than LHRH
3,[D-Mtf^6 ]LHRH,more potent than LHRH
4,[D-Nal(1)^6 ]LHRH,more potent than LHRH
5,[D-Nal(2)^6 ]LHRH,more potent than LHRH
6,[D-Pfp^6 ]LHRH,more potent than LHRH
7,[D-Tmo^6 ]LHRH,more potent than LHRH
8,[D-Tmp^6 ]LHRH,more potent than LHRH
9,"[D-Trp^6, Pro^9 -NHEt]LHRH",more potent than LHRH
10,[D-ptf^6 ]LHRH,more potent than LHRH

# Same assay, conditions: Nestor et al.; cited from earlier work
row,Substance,agonistic activity in words
1,[D-Dca^6 ]LHRH,activity dropped off
2,"[D-Nal(2)^6 ], aza-Gly^10 ]LHRH",one of the most potent LHRH agonists known

# Target: T1, LHRH receptor
# Settings: literature review; cited from earlier work
Substance,antagonistic activity,agonistic activity of antagonist analogs
"Leu^3 -LHRH (QHLSYGLRPG; ends and bridges not checked; UniProt P01148 24-33, looked up, variant W3L)",some antagonistic activity,–
"[desHis^2, D-Ala^6 ] LHRH",found to have antagonistic activity,–
"[desHis^2, D-Ala^6, desGly^10 ] LHRHEA",found to have antagonistic activity,showed some agonistic activity
"[desHis^2, D-Phe^6 ]LHRH",increased antagonistic activity,–
"[desHis^2, Leu^3, D-Ala^6, desGly^10 ] LHRHEA",found to have antagonistic activity,showed some agonistic activity
"[desHis^2, Leu^3, desGly^10 ] LHRHEA",found to have antagonistic activity,–
"[desHis^2, desGly^10 ] LHRHEA",significant antagonistic activity,–
